Where two headings read alike, the source gives them in different places.
How the values were obtained:
human H3 receptor [1] = target: T1, human H3 receptor (Homo sapiens, UniProt Q9Y5N1); experiment: H3 receptor binding (N-[3H]-α-methylhistamine displacement, SK-N-MC cell membranes); details: 0.8 nM N-[3H]-α-methylhistamine, 60 min at 25° C.
T1 construct: expressed in transfected cells
How it was run: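 Membranes from SK-N-MC cells stably expressing cloned human H3 receptor, in 50 mM Tris/5 mM EDTA pH 7.4, incubated with 0.8 nM N-[³H]-α-methylhistamine ± compound for 60 min at 25° C., then filtered. Nonspecific binding defined with 10 μM histamine.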

Rat SERT = target: T2, Rat SERT (Rattus norvegicus, UniProt P31652); experiment: Rat brain SERT binding ([3H]-Citalopram displacement, rat brain membranes); details: 0.6 nM [3H]-Citalopram, 60 min at 25° C.
T2 construct: A rat brain without cerebellum (Zivic Laboratories, Inc.—Pittsburgh, Pa.) was homogenized; tissue Zivic Laboratories, Inc; host or cells: rat brain without cerebellum
How it was run: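 Membranes prepared from rat brain minus cerebellum in Tris pH 8/NaCl/KCl were incubated with 0.6 nM [3H]-citalopram and test compound for 60 min at 25° C. Bound ligand was separated by filtration. Nonspecific binding defined with 100 μM fluoxetine.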

human SERT = target: T3, human SERT (Homo sapiens, UniProt P31645); experiment: Human SERT binding (3H-citalopram displacement, HEK293 membranes); details: 3H-citalopram 3.1 nM, rt for 1 h
T3 construct: expressed in transfected cells; host or cells: HEK293
How it was run: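 HEK293 membranes expressing human SERT incubated with ^3H-citalopram (3.1 nM) for 1 h at rt in 50 mM Tris, 120 mM NaCl, 5 mM KCl, pH 7.4. Nonspecific binding defined with 10 μM fluoxetine. Ki derived from bound radioactivity using the ^3H-citalopram Kd.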

human H3 receptor [2] = target: T1, human H3 receptor; experiment: Cyclic AMP accumulation (β-galactosidase reporter in SK-N-MC cells); type: cell-based
Procedure: Sublines of SK-N-MC cells were created that expressed a reporter construct and the human H3 receptor. The reporter gene (β-galactosidase) is under the control of multiple cyclic AMP responsive elements. In 96-well plates, histamine was added directly to the cell media followed 5 min later by an addition of forskolin (5 μM final concentration). When appropriate, antagonists were added 10 min prior to agonist addition. After a 6-h incubation at 37° C., the media was aspirated and the cells washed with 200 μL of phosphate-buffered saline followed by a second aspiration. Cells were lysed with 25 μL 0.1× assay buffer (10 mM Na-phosphate, pH 8, 0.2 mM MgSO4, 0.01 mM MnCl2) and incubated at rt for 10 min. Cells were then incubated for 10 min with 100 μL of 1× assay buffer containing 0.5% Triton and 40 mM β-mercaptoethanol. Color was developed using 25 μL of 1 mg/mL substrate solution (chlorophenolred β-D galactopyranoside; Roche Molecular Biochemicals, Indianapolis, Ind.). Color was quantitated on a microplate reader at absorbance 570 nm. The pA2 values were calculated by Schild regression analysis of the pEC50 values.

T3 sequence (P31645 whole entry): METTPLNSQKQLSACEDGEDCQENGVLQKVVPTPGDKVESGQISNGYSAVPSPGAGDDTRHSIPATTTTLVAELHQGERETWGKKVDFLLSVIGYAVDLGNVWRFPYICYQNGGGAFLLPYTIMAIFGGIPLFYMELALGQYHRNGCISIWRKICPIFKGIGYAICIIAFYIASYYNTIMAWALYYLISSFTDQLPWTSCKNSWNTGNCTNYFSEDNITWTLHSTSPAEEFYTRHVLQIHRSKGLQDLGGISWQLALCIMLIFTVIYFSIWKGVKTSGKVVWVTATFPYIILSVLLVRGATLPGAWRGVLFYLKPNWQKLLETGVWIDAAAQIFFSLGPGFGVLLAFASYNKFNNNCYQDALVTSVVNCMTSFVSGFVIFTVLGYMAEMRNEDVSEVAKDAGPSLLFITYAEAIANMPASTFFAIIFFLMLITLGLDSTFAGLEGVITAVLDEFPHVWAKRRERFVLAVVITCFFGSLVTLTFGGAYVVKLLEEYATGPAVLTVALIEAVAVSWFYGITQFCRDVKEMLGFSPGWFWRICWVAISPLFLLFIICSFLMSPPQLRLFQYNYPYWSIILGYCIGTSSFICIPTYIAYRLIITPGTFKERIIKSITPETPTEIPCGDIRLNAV
T2 sequence (P31652 whole entry): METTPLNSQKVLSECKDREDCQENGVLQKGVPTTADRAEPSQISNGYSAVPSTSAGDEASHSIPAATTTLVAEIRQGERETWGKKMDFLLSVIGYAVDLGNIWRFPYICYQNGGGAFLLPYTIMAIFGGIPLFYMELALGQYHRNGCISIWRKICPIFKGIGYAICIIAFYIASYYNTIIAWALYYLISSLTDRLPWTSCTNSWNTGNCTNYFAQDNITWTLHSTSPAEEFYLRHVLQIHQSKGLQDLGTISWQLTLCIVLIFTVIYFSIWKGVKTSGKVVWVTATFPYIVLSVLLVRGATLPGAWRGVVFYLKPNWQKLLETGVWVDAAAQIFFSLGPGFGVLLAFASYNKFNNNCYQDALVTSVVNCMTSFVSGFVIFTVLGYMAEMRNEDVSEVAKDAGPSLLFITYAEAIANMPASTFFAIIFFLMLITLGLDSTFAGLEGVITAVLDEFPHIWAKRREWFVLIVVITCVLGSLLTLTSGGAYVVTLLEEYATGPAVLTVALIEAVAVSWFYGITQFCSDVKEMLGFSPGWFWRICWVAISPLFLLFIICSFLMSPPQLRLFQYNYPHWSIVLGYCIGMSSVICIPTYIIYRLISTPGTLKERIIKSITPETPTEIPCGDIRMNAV
T1 sequence (Q9Y5N1 whole entry): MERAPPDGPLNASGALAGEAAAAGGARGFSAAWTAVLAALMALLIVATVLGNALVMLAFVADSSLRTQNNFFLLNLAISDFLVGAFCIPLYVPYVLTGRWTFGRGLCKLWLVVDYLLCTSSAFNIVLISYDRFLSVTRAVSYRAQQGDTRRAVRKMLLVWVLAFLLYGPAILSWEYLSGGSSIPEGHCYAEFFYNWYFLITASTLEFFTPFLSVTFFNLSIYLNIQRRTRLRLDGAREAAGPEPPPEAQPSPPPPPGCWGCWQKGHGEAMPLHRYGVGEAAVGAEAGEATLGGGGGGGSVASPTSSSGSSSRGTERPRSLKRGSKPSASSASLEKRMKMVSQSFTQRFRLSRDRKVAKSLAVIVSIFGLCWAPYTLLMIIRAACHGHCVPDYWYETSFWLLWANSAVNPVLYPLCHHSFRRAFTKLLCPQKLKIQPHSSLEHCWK

Compound | Ki (human H3 receptor [1]) [nM] | Ki (Rat SERT) [nM] | Ki (human SERT) [nM] | Kb (human H3 receptor [2]; read-out: pA2 (converted)) [nM] | Kb (human H3 receptor [2]; Schild regression analysis of the pEC50 values, histamine agonist, forskolin 5 μM, SK-N-MC reporter cells, read-out: pA2 (converted)) [nM] | Kb (human H3 receptor [2]) [nM]
CNCCC(Oc1ccc(Cl)c(Cl)c1)c1ccc(OCCCN2CCCCC2)cc1 (centres unmarked) [Example 71, {3-(3,4-Dichloro-phenoxy)-3-[4-(3-piperidin-1-yl-propoxy)-phenyl]-propyl}-methyl-amine] | 2 | 3 | 0.8 | 10.5 |  | 
COc1cccc(OC(CCN(C)C)c2ccc(OCCCN3CCCCC3)cc2)c1 (centres unmarked) [Example 13, {3-(3-Methoxy-phenoxy)-3-[4-(3-piperidin-1-yl-propoxy)-phenyl]-propyl}-dimethyl-amine] | 0.7 | 3 | 11 | 0.617 |  | 
CN(C)CCC(Oc1ccccc1)c1ccc(OCCCN2CCCCC2)cc1 (centres unmarked) [Example 1, Dimethyl-[3-phenoxy-3-[4-(3-piperidin-1-yl-propoxy)-phenyl]-propyl]-amine] | 0.7 | 1 | 26 |  |  | 0.468
CC(C)N1CCN(Cc2ccc(C(CCN(C)C)Oc3ccc(Cl)c(Cl)c3)cc2)CC1 (centres unmarked) [Example 47, {3-(3,4-Dichloro-phenoxy)-3-[4-(4-isopropyl-piperazin-1-ylmethyl)phenyl]-propyl}-dimethyl-amine] | 5 | 6 | 6 | 11.5 |  | 
CN(C)CCC(Oc1ccc(C(F)(F)F)cc1)c1ccc(C#CCCN2CCCCC2)cc1 (centres unmarked) [Example 20, Dimethyl-[3-[4-(4-piperidin-1-yl-but-1-ynyl)-phenyl]-3-(4-trifluoromethyl-phenoxy)-propyl]-amine] | 9 | 58 | 61 |  | 5.62 | 

Continued by falling Ki (human H3 receptor [1]), values first:

Ki (human H3 receptor [1]) [nM] | Ki (Rat SERT) [nM] | Ki (human SERT) [nM] | Kb (human H3 receptor [2]; read-out: pA2 (converted)) [nM] | Kb (human H3 receptor [2]; Schild regression analysis of the pEC50 values, histamine agonist, forskolin 5 μM, SK-N-MC reporter cells, read-out: pA2 (converted)) [nM] | Compound | Kb (human H3 receptor [2]) [nM]
1.2 | 5 | 29 | 0.661 |  | CN(C)CCC(Oc1ccccc1)c1ccc(C#CCCN2CCCCC2)cc1 (centres unmarked) [Example 21, Dimethyl-{3-phenoxy-3-[4-(4-piperidin-1-yl-but-1-ynyl)-phenyl]-propyl}-amine] | 
1 | 14 | 133 | 0.977 |  | CC(C)N1CCN(Cc2ccc(C(CCN(C)C)Oc3ccccc3)cc2)CC1 (centres unmarked) [Example 56, {3-[4-(4-Isopropyl-piperazin-1-ylmethyl)-phenyl]-3-phenoxy-propyl}-dimethyl-amine] | 
1 | 23 | 163 | 1.7 |  | CN(C)CCC(Oc1ccc(OCCCN2CCCCC2)cc1)c1ccc(Cl)cc1 (centres unmarked) [Example 43, {3-(4-Chloro-phenyl)-3-[4-(3-piperidin-1-yl-propoxy)-phenoxy]-propyl}-dimethyl-amine] | 
0.9 | 18 | 90 | 0.0977 |  | CC(C)N1CCC(Oc2ccc(OC(CCN(C)C)c3ccccc3)cc2)CC1 (centres unmarked) [Example 44, {3-[4-(1-Isopropyl-piperidin-4-yloxy)-phenoxy]-3-phenyl-propyl}-dimethyl-amine] | 
0.6 | 4 | 53 | 0.631 |  | CN(C)CCC(Sc1ccccc1)c1ccc(OCCCN2CCCCC2)cc1 (centres unmarked) [Example 67, Dimethyl-{3-phenylsulfanyl-3-[4-(3-piperidin-1-yl-propoxy)phenyl]-propyl}-amine] | 
0.3 | 9 | 91 | 0.0631 |  | CN(C)CCC(Oc1cccnc1)c1ccc(OCCCN2CCCCC2)cc1 (centres unmarked) [Example 18, Dimethyl-[3-[4-(3-piperidin-1-yl-propoxy)-phenyl]-3-(pyridin-3-yloxy)-propyl]-amine] | 

Source: patent publication US20080139564A1, “SUBSTITUTED PHENYL PROPYL AMINES AS HISTAMINE H3 RECEPTOR AND SEROTONIN TRANSPORTER MODULATORS” (priority 2006, published 2008)
